# Data published in patent publication US10596109B2 (Abela Pharmaceuticals, Inc., priority 2009, dated 2020).
# Like-named read-outs stand apart in the source and are kept apart here.
# How the values were obtained:
# [1] = test system: S. pneumonia; assay: Bacterial viability by bioluminescent ATP assay, 7 hours culture
# [2] = test system: S. pyogenes; details: Streptococcus pyogenes, 18 h
# [3] = test system: S. pneumonia; details: Streptococcus pneumonia, 7 h
# [4] = test system: S. pyogenes; assay: Bacterial viability by bioluminescent ATP assay, 18 hours culture; details: MSM alone at 8%
Compound,Reduction in bacterial viability ([1]; DMSO 5% alone),S. pyogenes viability ([2]; 0.63 %) [%],S. pyogenes viability ([2]; 1.25 %) [%],S. pyogenes viability ([2]; 10 %) [%],S. pyogenes viability ([2]; 20 %) [%],S. pyogenes viability ([2]; […]) [%],S. pneumonia viability ([3]; 5 %) [%],S. pneumonia viability ([3]; 10 %) [%],Reduction in bacterial viability ([1]; MSM 5% alone) [%],S. pneumonia viability ([1]; MSM 10%) [%],S. pneumonia viability ([1]; MSM 20%) [%],Reduction in bacterial viability (estimated) [4]
"C[S+](C)[O-] [DMSO, Dimethyl sulfoxide]",approximately 25%,100,100,14.50,5.14,100,75.45,40.18,,,,
"CS(C)(=O)=O [MSM, Methylsulfonylmethane]",,,,,,,,,~5,48.57,39.08,approximately 89%
